Measured values taken from patent EP4603105A1, “PHARMACEUTICAL COMPOSITION CONTAINING CYCLIC COMPOUND HAVING SELECTIVE KRAS INHIBITORY EFFECT AGAINST HRAS AND NRAS” (CHUGAI SEIYAKU KABUSHIKI KAISHA, priority 2022, dated 2024).
*1 amine or outer side, *2 acyl side, *3 side chain or, on linkers, in order; H or OH if unused. Where a SMILES comes first, the peptide text is derived from it. Bridges are numbered along the chain shown (N, C = ends). [ ]: non-standard residue; d: D form. The star is where a group is joined. hPhe(3-Cl-4-CF3) = N[C@@H](CCc1ccc(C(F)(F)F)c(Cl)c1)C(=O)O; X22 = C=CCCN([C@@H](Cc1ccc(C(F)(F)F)cc1)C(=O)[*:2])[*:1]; NPrPhe(4-CF3) = CCCN[C@@H](Cc1ccc(C(F)(F)F)cc1)C(=O)O; X27 = COCCCN([C@@H](Cc1ccc(C)cc1)C(=O)[*:2])[*:1]; NMePhe(4-Me) = CN[C@@H](Cc1ccc(C)cc1)C(=O)O; NMeGly(cPent) = CN[C@H](C(=O)O)C1CCCC1; Hyp = O=C(O)[C@@H]1C[C@@H](O)CN1; NMeD = CN[C@@H](CC(=O)O)C(=O)O; NMeL = CN[C@@H](CC(C)C)C(=O)O; Morpholide = C1CN(*)CCO1; NMeA = CN[C@@H](C)C(=O)O; NMeAib = CNC(C)(C)C(=O)O; Nle = CCCC[C@H](N)C(=O)O; Piperidide = C1CCN(*)CC1; Ac5c = NC1(C(=O)O)CCCC1; Aze = O=C(O)[C@@H]1CCN1; Sar = CNCC(=O)O

Assays:
[1] = target: GDP-bound NRAS wild-type protein (Homo sapiens, UniProt P01111); assay: Binding to NRAS by surface plasmon resonance (SPR), KD and KD ratio to KRAS
Chain of GDP-bound NRAS wild-type protein (P01111 whole entry): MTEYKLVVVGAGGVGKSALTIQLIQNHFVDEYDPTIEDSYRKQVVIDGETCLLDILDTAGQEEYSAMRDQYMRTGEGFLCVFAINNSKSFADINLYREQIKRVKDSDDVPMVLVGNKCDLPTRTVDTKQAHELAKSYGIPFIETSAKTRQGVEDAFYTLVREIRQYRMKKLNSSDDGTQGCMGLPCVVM
Method in brief: (§1)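 Compound binding is evaluated by SPR single-cycle kinetics, with concentrations added intermittently from low to high for 75 s each. Target surfaces carry GDP-loaded biotinylated Avi-RAS at about 100–300 RU, regenerated after each cycle; temperature 30°C. A 1:1 binding model gives KD.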

HRAS wild-type protein = HRAS wild-type protein (Homo sapiens, UniProt P01112); assay: Binding to HRAS by surface plasmon resonance (SPR), KD and KD ratio to KRAS
Chain of HRAS wild-type protein (P01112 whole entry): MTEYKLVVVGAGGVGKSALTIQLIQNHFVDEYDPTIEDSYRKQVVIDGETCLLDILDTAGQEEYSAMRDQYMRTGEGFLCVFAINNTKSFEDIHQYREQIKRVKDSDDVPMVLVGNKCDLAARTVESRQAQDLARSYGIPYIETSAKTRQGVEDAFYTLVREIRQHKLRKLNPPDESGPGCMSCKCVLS
Method in brief: as §1

[2] = test system: human lung cancer strain NCI-H441; type: cell-based
Method in brief: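 Proliferation was scored by […] measured after the reagent was added to cultures kept at 37°C in 5% carbon dioxide.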

[3] = ratio of KD for GDP-bound NRAS wild-type protein to KD for KRAS
[4] = ratio of KD for HRAS wild-type protein to KD for KRAS
[5] = ratio of the KD value with respect to GDP-bound NRAS wild-type protein to the KD value with respect to KRAS
[6] = ratio of the KD value with respect to HRAS wild-type protein to the KD value with respect to KRAS

Row | SMILES | NRAS /KRAS ([1]; ratio of KD value for GDP-bound NRAS wild-type protein to KD value for KRAS (SPR)) | HRAS /KRAS (HRAS wild-type protein; ratio of KD value for HRAS wild-type protein to KD value for KRAS (SPR)) | IC50 [2] [nM] | NRAS /KRAS [1, 3] | HRAS /KRAS (HRAS wild-type protein; [4]) | NRAS /KRAS [1, 5] | HRAS /KRAS (HRAS wild-type protein; [6])
1 | CCO[C@@H]1C[C@H]2C(=O)NC3(CCC3)C(=O)N(C)[C@@H](C3CCCC3)C(=O)N(C)[C@H](C3CCC3)CC(=O)N(C)[C@@H](CC3CC3)C(=O)N[C@@H]([C@@H](C)CC)C(=O)N(C)CC(=O)N(C)[C@H]3C/C=C\CCN(C3=O)[C@@H](Cc3ccc(C(F)(F)F)cc3)C(=O)N(C)CC(=O)N[C@@H](CCc3cc(F)c(C(F)(F)F)c(F)c3)C(=O)N2C1 [PP1637] | A (a compound having 10 or more and less than 20 is denoted as A) | A (a compound having 10 or more and less than 20 is denoted as A) | 32.5 | – | – | – | –
2 | CCC[C@H]1C(=O)N[C@@H]([C@@H](C)CC)C(=O)N(C)CC(=O)N(C)[C@H]2C/C=C\CCN(C2=O)[C@@H](Cc2ccc(C(F)(F)F)cc2)C(=O)N(C)CC(=O)N[C@@H](CCc2ccc(C(F)(F)F)c(Cl)c2)C(=O)N2C[C@H](OCC)C[C@H]2C(=O)NC2(CC(C)(C)C2)C(=O)N(C)[C@@H](CC(C)(C)C)C(=O)N(C)[C@H](C(=O)N(C)C)CC(=O)N1C [PP2969] | – | – | 2.7 | AA (a compound having 20 or more is denoted as AA) | A (a compound having 10 or more and less than 20 is denoted as A) | – | –
3 | C=CCN1CC(=O)N(C)[C@H]2C/C=C\CCN(C2=O)[C@@H](Cc2ccc(C(F)(F)F)cc2)C(=O)N(C)CC(=O)N[C@@H](CCc2cc(F)c(C(F)(F)F)c(F)c2)C(=O)N2C[C@H](OCC)C[C@H]2C(=O)NC2(CC(C)(C)C2)C(=O)N(C)[C@@H](C2CCCC2)C(=O)N(C)[C@H](C(=O)N(C)C)CC(=O)N(C)[C@@H](CCC)C(=O)N[C@@H]([C@@H](C)CC)C1=O [PP2102] | – | – | 7 | – | – | A (a compound having 10 or more and less than 20 is denoted as A) | A (a compound having 10 or more and less than 20 is denoted as A)
4 | CC[C@H](C)[C@@H]1NC(=O)[C@H](CC(C)C)N(C)C(=O)C[C@@H](C(=O)N2CCOCC2)N(C)C(=O)[C@H](C2CCCC2)N(C)C(=O)C2(CCCC2)NC(=O)[C@@H]2CCCN2C(=O)[C@H](CCc2ccc(C(F)(F)F)c(Cl)c2)NC(=O)CN(C)C(=O)[C@H](Cc2ccc(OC(F)(F)F)cc2)N2CC=CC[C@@H](C2=O)N(C)C(=O)CN(C)C1=O [PP0537] | – | – | 197 | – | – | C (A compound having a KD ratio of 0.1 or more and less than 3 is denoted as C) | C (A compound having a KD ratio of 0.1 or more and less than 3 is denoted as C)
5 | CCC[C@H]1C(=O)N[C@@H]([C@@H](C)CC)C(=O)N(C)CC(=O)N(C)[C@H]2C/C=C\CCN(C2=O)[C@@H](Cc2ccc(C)cc2)C(=O)N(C)CC(=O)N[C@@H](CCc2ccc3sc(F)c(C)c3c2)C(=O)N2C[C@H](OCC)C[C@H]2C(=O)NC2(CC(C)(C)C2)C(=O)N(C)[C@@H](C2CCCC2)C(=O)N(C)[C@H](C(=O)N(C)C)CC(=O)N1C [PP2949] | – | – | 3.5 | A (a compound having 10 or more and less than 20 is denoted as A) | A (a compound having 10 or more and less than 20 is denoted as A) | – | –
6 | CCO[C@@H]1C[C@H]2C(=O)NC3(CC=CC3)C(=O)N(C)[C@@H](C3CCCC3)C(=O)N(C)[C@H](C(=O)N3CCOCC3)CC(=O)N(C)[C@@H](COC)C(=O)N[C@@H]([C@@H](C)CC)C(=O)N(C)CC(=O)N(C)[C@H]3CCCCCN(C3=O)[C@@H](Cc3ccc(C(F)(F)F)cc3)C(=O)N(C)CC(=O)N[C@@H](CCc3cc(F)c(C(F)(F)F)c(F)c3)C(=O)N2C1 [PP0842] | – | – | 174 | B (a compound having 3 or more and less than 10 is denoted as B) | B (a compound having 3 or more and less than 10 is denoted as B) | – | –
7 | CCCO[C@@H]1C[C@H]2C(=O)NC3(CC(C)(C)C3)C(=O)N(C)[C@@H](C3CCCC3)C(=O)N(C)[C@H](C(=O)N(C)C)CC(=O)N(C)[C@H]3CCCCc4ccc(cc4)C[C@@H](C(=O)N(C)CC(=O)N[C@@H](CCc4ccc(C(F)(F)F)c(OC)c4)C(=O)N2C1)N1CC/C=C\C[C@@H](C1=O)N(C)C(=O)CN(C)C(=O)[C@H]([C@@H](C)CC)NC3=O [PP3077] | – | – | 0.8 | A (a compound having 10 or more and less than 20 is denoted as A) | B (a compound having 3 or more and less than 10 is denoted as B) | – | –
8 | C=CCCN1C(=O)CN(C)C(=O)CN(C)C(=O)[C@H]([C@@H](C)CC)NC(=O)[C@H](CC(C)C)N(C)C(=O)C[C@@H](C(=O)N2CCOCC2)N(C)C(=O)[C@H](C2CCCC2)N(C)C(=O)C2(CCCC2)NC(=O)[C@@H]2CCCN2C(=O)[C@H](CCc2ccc(C(F)(F)F)c(Cl)c2)NC(=O)CN(C)C(=O)[C@@H]1Cc1ccc(C(F)(F)F)cc1 [PP0129] ([NMeL]I[Sar][Sar][X22][Sar][hPhe(3-Cl-4-CF3)]P[Ac5c][NMeGly(cPent)][NMeD]-Morpholide; lactam N-11) | – | – | 8.8 | B (a compound having 3 or more and less than 10 is denoted as B) | C (A compound having a KD ratio of 0.1 or more and less than 3 is denoted as C) | – | –
9 | CCC[C@H]1C(=O)N[C@@H]([C@@H](C)CC)C(=O)N(C2CC2)CC(=O)N(C)[C@H]2C/C=C\CCN(C2=O)[C@@H](Cc2ccc(C(F)(F)F)cc2)C(=O)N(C)CC(=O)N[C@@H](CCc2ccc(C(F)(F)F)c(OC)c2)C(=O)N2C[C@H](OCC)C[C@H]2C(=O)N(C)C2(CCC2)C(=O)N(C)[C@@H](C2CCCC2)C(=O)N(C)[C@H](C(=O)N2CCCCC2)CC(=O)N1C [PP3095] | – | – | 33.7 | A (a compound having 10 or more and less than 20 is denoted as A) | A (a compound having 10 or more and less than 20 is denoted as A) | – | –
10 | CCO[C@@H]1C[C@H]2C(=O)NC3(CCC3)C(=O)N(C)[C@@H](C3CCCC3)C(=O)N(C)[C@H](C(=O)N(C)C)CC(=O)N(C)[C@@H](Cc3cccc(F)c3)C(=O)N[C@@H]([C@@H](C)CC)C(=O)N(C)CC(=O)N(C)[C@H]3CCCCCN(C3=O)[C@@H](Cc3ccc(C(F)(F)F)cc3)C(=O)N(C)CC(=O)N[C@@H](CCc3cc(F)c(C(F)(F)F)c(F)c3)C(=O)N2C1 [PP0935] | – | – | 26.9 | B (a compound having 3 or more and less than 10 is denoted as B) | B (a compound having 3 or more and less than 10 is denoted as B) | – | –
11 | CC[C@H](C)[C@@H]1NC(=O)[C@H](CC(C)C)N(C)C(=O)C[C@@H](C(=O)N2CCOCC2)N(C)C(=O)[C@H](C2CCCC2)N(C)C(=O)C2(CCCC2)NC(=O)[C@@H]2CCCN2C(=O)[C@H](CCc2ccc(C(F)(F)F)c(Cl)c2)NC(=O)CN(C)C(=O)[C@H](Cc2ccc(C)cc2)N(CCCOC)C(=O)CN(C)C(=O)CN(C)C1=O [PP0105] ([NMeL]I[Sar][Sar][X27][Sar][hPhe(3-Cl-4-CF3)]P[Ac5c][NMeGly(cPent)][NMeD]-Morpholide; lactam N-11) | – | – | 8.3 | B (a compound having 3 or more and less than 10 is denoted as B) | C (A compound having a KD ratio of 0.1 or more and less than 3 is denoted as C) | – | –
12 | CCCN(C)C(=O)[C@@H]1CC(=O)N(C)[C@@H](CC(F)F)C(=O)N[C@@H]([C@@H](C)CC)C(=O)N(C)CC(=O)N(C)[C@H]2C/C=C\CCN(C2=O)[C@@H](Cc2ccc(C(F)(F)F)cc2)C(=O)N(C)CC(=O)N[C@@H](CCc2cc(F)c(C(F)(F)F)c(F)c2)C(=O)N2C[C@H](OCC)C[C@H]2C(=O)NC2(CC(C)(C)C2)C(=O)N(C)[C@@H](C2CCCC2)C(=O)N1C [PP2030] | – | – | 4.5 | – | – | A (a compound having 10 or more and less than 20 is denoted as A) | A (a compound having 10 or more and less than 20 is denoted as A)
13 | CCCN1C(=O)CN(C)C(=O)[C@@H]2CCN2C(=O)[C@H]([C@@H](C)CC)NC(=O)[C@H](CC(C)C)N(C)C(=O)C[C@@H](C(=O)N(C)C)NC(=O)[C@H](C2CCCC2)N(C)C(=O)C2(CCCC2)NC(=O)[C@@H]2C[C@@H](OCC)CN2C(=O)[C@H](CCc2ccc(C(F)(F)F)c(Cl)c2)NC(=O)CN(C)C(=O)[C@@H]1Cc1ccc(C(F)(F)F)cc1 [PP0377] ([NMeL]I[Aze][Sar][NPrPhe(4-CF3)][Sar][hPhe(3-Cl-4-CF3)][Hyp](Et)[Ac5c][NMeGly(cPent)]D-NMe2; lactam N-11) | – | – | 33.4 | B (a compound having 3 or more and less than 10 is denoted as B) | C (A compound having a KD ratio of 0.1 or more and less than 3 is denoted as C) | – | –
14 | CCCC[C@@H]1NC(=O)[C@H](CCc2ccc(C(F)(F)F)c(Cl)c2)NC(=O)CN(C)C(=O)[C@H](Cc2ccc(C)cc2)N(C)C(=O)[C@@H]2CCN2C(=O)[C@H](C)N(C)C(=O)[C@H]([C@@H](C)CC)NC(=O)[C@H](CC(C)C)N(C)C(=O)C[C@@H](C(=O)N2CCCCC2)N(C)C(=O)[C@H](CC(C)C)NC(=O)C(C)(C)N(C)C1=O [PP0047] ([NMeL]I[NMeA][Aze][NMePhe(4-Me)][Sar][hPhe(3-Cl-4-CF3)][Nle][NMeAib]L[NMeD]-Piperidide; lactam N-11) | – | – | 229 | C (A compound having a KD ratio of 0.1 or more and less than 3 is denoted as C) | C (A compound having a KD ratio of 0.1 or more and less than 3 is denoted as C) | – | –
